The target in the assay is soluble HLA-A*02:01 molecules (Homo sapiens, UniProt P04439, D140Y/D185E/D98H/E176V/E277Q/G131W/G231S/I119V/I121R/I166T/I218V/L300P/L318F/N151K/N90K/P208A/P217A/Q86G/Q94H/R138H/R169H/T345S). The experiment in a line: Binding with soluble HLA-A*02:01 molecules.

For the compound `CSCC[C@H](NC(=O)[C@@H](N)[C@@H](C)O)C(=O)N[C@@H](CC(C)C)C(=O)N[C@@H](CCC(=O)O)C(=O)N[C@@H](CC(=O)O)C(=O)N[C@@H](Cc1c[nH]cn1)C(=O)N[C@@H](CCC(=O)O)C(=O)N[C@@H](Cc1ccccc1)C(=O)N[C@H](C(=O)O)C(C)C` [gB675–683], the Kd is about 95 nM.

The values above are taken from paper PMC4057607 (Journal of immunology (Baltimore, Md. : 1950), 2013).
